# Reference: patent EP4775586A1, “DEUTERATED TETRACYCLIC DERIVATIVE AND USE THEREOF” (priority 2023, dated 2025)
# Counter-ions that a name gives are not always drawn.
# Test system: Mycobacterium tuberculosis H37Rv
# Assay: Minimum inhibitory concentration (MIC90) against Mycobacterium tuberculosis H37Rv, Middlebrook 7H9, 96-well plate, 15 days
# Format: cell-based
# Settings: 360 h; Mycobacterium tuberculosis H37Rv, 15 days of incubation, 90% inhibition of growth, visual reading; read-out: MIC90
row,Compound,MIC90 [µg/mL]
1,"[2H]C1([2H])CC(C(=O)CCC)CC([2H])([2H])N1C([2H])([2H])c1c(O)ccc2oc3c(c12)C(=O)OCc1cc(O)ccc1-3 [YF012, 8-((4-Butanoylpiperidin-1-yl-2,2,6,6-d4)-methyl-d2)-3,9-dihydroxybenzo[5,6]oxepino[4,3-b]benzofuran-7(5H)-one]",0.0312
2,"[2H]c1c(O)c(C([2H])([2H])N2C([2H])([2H])CC(C(=O)CCC)CC2([2H])[2H])c2c3c(oc2c1[2H])-c1ccc(O)cc1C([2H])([2H])OC3=O [YF013, 8-((4-Butanoylpiperidin-1-yl-2,2,6,6-d4)-methyl-d2)-3,9-dihydroxybenzo[5,6]oxepino[4,3-b]benzofuran-7(5H)-one-5,5,10,11-d4]",0.0625
3,"[2H]C(O)(CCC)C1CCN(C([2H])([2H])c2c(O)ccc3oc4c(c23)C(=O)OCc2cc(O)ccc2-4)CC1 (centres unmarked) [YF016, 3,9-Dihydroxy-8-((4-(1-hydroxybutyl-1-d)piperidin-1-yl)methyl-d2)benzo[5,6]oxepino[4,3-b]benzofuran-7(5H)-one]",0.0156
4,"[2H]C([2H])(CC)C(=O)C1([2H])CCN(Cc2c(O)ccc3oc4c(c23)C(=O)OCc2cc(O)ccc2-4)CC1 [YF011, 8-((4-(Butanoyl-2,2-d2)piperidin-1-yl-4-d)methyl)-3,9-dihydroxybenzo[5,6]oxepino[4,3-b]benzofuran-7(5H)-one]",0.0625
5,"[2H]C1([2H])CC(c2cccc(Cl)c2)CC([2H])([2H])N1Cc1c(O)ccc2oc3c(c12)C(=O)OCc1cc(O)ccc1-3 [YF007, 8-((4-(3-Chlorophenyl)piperidin-1-yl-2,2,6,6-d4)methyl)-3,9-dihydroxybenzo[5,6]oxepino[4,3-b]benzofuran-7(5H)-one]",0.125
6,"[2H]C([2H])(c1c(O)ccc2oc3c(c12)C(=O)OCc1cc(O)ccc1-3)N1CCC(c2cccc(Cl)c2)CC1 [YF006, 8-((4-(3-Chlorophenyl)piperidin-1-yl)methyl-d2)-3,9-dihydroxybenzo[5,6]oxepino[4,3-b]benzofuran-7(5H)-one]",0.125
7,"[2H]C1([2H])CC(c2cccc(Cl)c2)CC([2H])([2H])N1C([2H])([2H])c1c(O)ccc2oc3c(c12)C(=O)OCc1cc(O)ccc1-3 [YF008, 8-((4-(3-Chlorophenyl)piperidin-1-yl-2,2,6,6-d4)methyl-d2)-3,9-dihydroxybenzo[5,6]oxepino[4,3-b]benzofuran-7(5H)-one]",0.0625
8,"[2H]C([2H])(CC)C([2H])(O)C1([2H])CCN(Cc2c(O)ccc3oc4c(c23)C(=O)OCc2cc(O)ccc2-4)CC1 (centres unmarked) [YF018, 3,9-Dihydroxy-8-((4-(1-hydroxybutyl-1,2,2-d3)piperidin-1-yl-4-d)methyl)benzo[5,6]oxepino[4,3-b]benzofuran-7(5H)-one]",0.0156
9,"[2H]C([2H])(c1c(O)ccc2oc3c(c12)C(=O)OCc1cc(O)ccc1-3)N1CCC(C(O)CCC)CC1 (centres unmarked) [YF015, 3,9-Dihydroxy-8-((4-(1-hydroxybutyl)piperidin-1-yl)methyl-d2)benzo[5,6]oxepino[4,3-b]benzofuran-7(5H)-one]",0.0156
10,"[2H]C([2H])(CC)C(O)C1([2H])CCN(Cc2c(O)ccc3oc4c(c23)C(=O)OCc2cc(O)ccc2-4)CC1 (centres unmarked) [YF017, 3,9-Dihydroxy-8-((4-(1-hydroxybutyl-2,2-d2)piperidin-1-yl-4-d)methyl)benzo[5,6]oxepino[4,3-b]benzofuran-7(5H)-one]",0.0156

# Same assay, conditions: H37RV, 360 h
row,Compound,MIC90 [µg/mL]
1,"[2H]c1c(O)c(C([2H])([2H])N2C([2H])([2H])CC(C([2H])(O)CCC)CC2([2H])[2H])c2c3c(oc2c1[2H])-c1ccc(O)cc1C([2H])([2H])OC3=O (centres unmarked) [YF022, 3,9-Dihydroxy-8-((4-(1-hydroxybutyl-1-d)piperidin-2,2,6,6-d4-1-yl)methyl-d2)benzo[5,6]oxepino[4,3-b]benzofuran-7(5H)-one-5,5,10,11-d4]",0.0156
2,"[2H]c1c(O)c(C([2H])([2H])N2CCC([2H])(C([2H])(O)C([2H])([2H])CC)CC2)c2c3c(oc2c1[2H])-c1ccc(O)cc1C([2H])([2H])OC3=O (centres unmarked) [YF024, 3,9-Dihydroxy-8-((4-(1-hydroxybutyl-1,2,2-d3)piperidin-1-yl-1-d)methyl-d2)benzo[5,6]oxepino[4,3-b]benzofuran-7(5H)-one-5,5,10,11-d4]",0.0156
3,"[2H]c1c(O)c(C([2H])([2H])N2CCC([2H])(C(O)C([2H])([2H])CC)CC2)c2c3c(oc2c1[2H])-c1ccc(O)cc1C([2H])([2H])OC3=O (centres unmarked) [YF023, 3,9-Dihydroxy-8-((4-(1-hydroxybutyl-2,2-d2)piperidin-1-yl-1-d)methyl-d2)benzo[5,6]oxepino[4,3-b]benzofuran-7(5H)-one-5,5,10,11-d4]",0.0156
4,"[2H]c1c(O)c(C([2H])([2H])N2C([2H])([2H])CC(C(O)CCC)CC2([2H])[2H])c2c3c(oc2c1[2H])-c1ccc(O)cc1C([2H])([2H])OC3=O (centres unmarked) [YF021, 3,9-Dihydroxy-8-((4-(1-hydroxybutyl)piperidin-2,2,6,6-d4-1-yl)methyl-d2)benzo[5,6]oxepino[4,3-b]benzofuran-7(5H)-one-5,5,10,11-d4]",0.0156

# Same assay, conditions: Mycobacterium tuberculosis H37Rv, 15 days of incubation, 90% inhibition of growth, visual reading
row,Compound,MIC90 [µg/mL]
1,"8-((4-(Butanoyl-2,2-d2)piperidin-1-yl-4-d)methyl-d2)-3,9-dihydroxybenzo[5,6]oxepino[4,3-b]benzofuran-7(5H)-one-5,5, 10,11-d4 [YF014]",0.0625
2,"8-((4-(Butanoyl-2,2-d2)piperidin-1-yl-4-d)methyl-d2)-3,9-dihydroxybenzo[5,6]oxepino[4,3-b]benzofuran-7(5H)-one-5,5,10,11-d4 hydrochloride [YF038]",0.0625
3,"[2H]C1([2H])CC(C(O)CCC)CC([2H])([2H])N1C([2H])([2H])c1c(O)ccc2oc3c(c12)C(=O)OCc1cc(O)ccc1-3 (centres unmarked) [YF019, 3,9-Dihydroxy-8-((4-(1-hydroxybutyl)piperidin-2,2,6,6-d4-1-yl)methyl)benzo[5,6]oxepino[4,3-b]benzofuran-7(5H)-one]",0.0078
4,"3,9-Dihydroxy-8-((4-(1-hydroxybutyl-1-d)piperidin-1-yl)methyl-d2)benzo[5,6]oxepino[4,3-b]benzofuran-7(5H)-one hydrochloride [YF040]",0.0156

# Same assay, conditions: Mycobacterium tuberculosis, H37RV, 360 h, Mycobacterium tuberculosis H37Rv, 15 days of incubation, 90% inhibition of growth, visual reading
row,Compound,MIC90 [µg/mL]
1,"[2H]c1c(O)c(C([2H])([2H])N2CCC([2H])(C(O)C([2H])([2H])CC)CC2)c2c3c(oc2c1[2H])-c1ccc(O)cc1C([2H])([2H])OC3=O (centres unmarked) [YF047, 3,9-Dihydroxy-8-((4-(1-hydroxybutyl-2,2-d2)piperidin-1-yl-1-d)methyl-d2)benzo[5,6]oxepino[4,3-b]benzofuran-7(5H)-one-5,5,10,11-d4 hydrochloride]",0.0156
2,"[2H]C(O)(CCC)C1CC([2H])([2H])N(C([2H])([2H])c2c(O)ccc3oc4c(c23)C(=O)OCc2cc(O)ccc2-4)C([2H])([2H])C1 (centres unmarked) [YF020, 3,9-Dihydroxy-8-((4-(1-hydroxybutyl-1-d)piperidin-2,2,6,6-d4-1-yl)methyl)benzo[5,6]oxepino[4,3-b]benzofuran-7(5H)-one]",0.0156
3,"[2H]c1c(O)c(C([2H])([2H])N2C([2H])([2H])CC(C([2H])(O)CCC)CC2([2H])[2H])c2c3c(oc2c1[2H])-c1ccc(O)cc1C([2H])([2H])OC3=O (centres unmarked) [YF046, 3,9-Dihydroxy-8-((4-(1-hydroxybutyl-1-d)piperidin-2,2,6,6-d4-1-yl)methyl-d2)benzo[5,6]oxepino[4,3-b]benzofuran-7(5H)-one-5,5,10,11-d4 hydrochloride]",0.0156
4,"[2H]C1([2H])CCCC([2H])([2H])N1Cc1c(O)cc(C(C)(C)C)c2oc3c4ccc(O)cc4oc(=O)c3c12 [YF002, 10-(tert-Butyl)-3,8-dihydroxy-7-((piperidin-1-yl-2,2,6,6-d4)methyl)-6H-benzofuran[3,2-c]chromen-6-one]",≤ 0.0039
5,"[2H]C1([2H])N(Cc2c(O)cc(C(C)(C)C)c3oc4c5ccc(O)cc5oc(=O)c4c23)C([2H])([2H])C([2H])([2H])C([2H])([2H])C1([2H])[2H] [YF004, 10-(tert-Butyl)-3,8-dihydroxy-7-((piperidin-1-yl-d10)methyl)-6H-benzofuran[3,2-c]chromen-6-one]",≤ 0.0039
6,"[2H]C([2H])(c1c(O)cc(C(C)(C)C)c2oc3c4ccc(O)cc4oc(=O)c3c12)N1C([2H])([2H])C([2H])([2H])C([2H])([2H])C([2H])([2H])C1([2H])[2H] [YF005, 10-(tert-Butyl)-3,8-dihydroxy-7-((piperidin-1-yl-d10)methyl-d2)-6H-benzofuran[3,2-c]chromen-6-one]",≤ 0.0039
7,"[2H]C([2H])(c1c(O)cc(C(C)(C)C)c2oc3c4ccc(O)cc4oc(=O)c3c12)N1CCCCC1 [YF001, 10-(tert-Butyl)-3,8-dihydroxy-7-(piperidin-1-ylmethyl-d2)-6H-benzofuran[3,2-c]chromen-6-one]",≤ 0.0039
8,"[2H]C([2H])(c1c(O)ccc2oc3c(c12)C(=O)OCc1cc(O)ccc1-3)N1CCC(C(=O)CCC)CC1 [YF010, 8-((4-Butanoyl)piperidin-1-ylmethyl-d2)-3,9-dihydroxybenzo[5,6]oxepino[4,3-b]benzofuran-7(5H)-one]",0.0625
9,"[2H]C1([2H])CCCC([2H])([2H])N1C([2H])([2H])c1c(O)cc(C(C)(C)C)c2oc3c4ccc(O)cc4oc(=O)c3c12 [YF003, 10-(tert-Butyl)-3,8-dihydroxy-7-((piperidin-1-yl-2,2,6,6-d4)methyl-d2)-6H-benzofuran[3,2-c]chromen-6-one]",≤ 0.0039
10,"[2H]c1c(O)c(C([2H])([2H])N2C([2H])([2H])CC(C(O)CCC)CC2([2H])[2H])c2c3c(oc2c1[2H])-c1ccc(O)cc1C([2H])([2H])OC3=O (centres unmarked) [YF045, 3,9-Dihydroxy-8-((4-(1-hydroxybutyl)piperidin-2,2,6,6-d4-1-yl)methyl-d2)benzo[5,6]oxepino[4,3-b]benzofuran-7(5H)-one-5,5,10,11-d4 hydrochloride]",0.0156
11,"[2H]C1([2H])CC(C(O)CCC)CC([2H])([2H])N1C([2H])([2H])c1c(O)ccc2oc3c(c12)C(=O)OCc1cc(O)ccc1-3 (centres unmarked) [YF043, 3,9-Dihydroxy-8-((4-(1-hydroxybutyl)piperidin-2,2,6,6-d4-1-yl)methyl)benzo[5,6]oxepino[4,3-b]benzofuran-7(5H)-one hydrochloride]",0.0156
